Values quoted from earlier work, collected in patent publication EP0611214A2, “Acidic composition and process of using same” (MINNESOTA MINING AND MANUFACTURING COMPANY, priority 1993, dated 1994).

conditions: in water, as reported in U.S. Pat. No. 5,080,822, column 4

Compound	aqueous ambient temperature solubility in weight percent [weight percent]
CC(O)COc1ccccc1 (centres unmarked) [1-phenoxy-2-propanol]	1.1
OCCOc1ccccc1 [2-phenoxyethanol]	2.3
OCCc1ccccc1 [8-phenylethanol]	1.6
CC(=O)c1ccccc1 [acetophenone]	0.5
OCc1ccccc1 [benzyl alcohol]	4.4
